Consider five compounds from ChEMBL document CHEMBL1153296, “Design and synthesis of novel tri-aryl CB2 selective cannabinoid ligands” (Bioorg Med Chem Lett, 2009).

What is called Ki is a measure of affinity in units of concentration, obtained from inhibition or displacement.

The species named for experiment [1] is Homo sapiens. Description: Selectivity ratio of Ki for human CB1 receptor to Ki for human CB2 receptor.
In experiment [2] the target is Cannabinoid receptor 2 (Homo sapiens, UniProt P34972). Description: Binding affinity to human CB2 receptor transfected in HEK293 cells. The experiment is classed as cell-based.
For experiment [3], the target named is Cannabinoid receptor 1 (Homo sapiens, UniProt P21554). As to the kind of experiment: Binding affinity to human CB1 receptor transfected in HEK293 cells. The experiment is classed as cell-based.
Chain of Cannabinoid receptor 1 (P21554 whole entry): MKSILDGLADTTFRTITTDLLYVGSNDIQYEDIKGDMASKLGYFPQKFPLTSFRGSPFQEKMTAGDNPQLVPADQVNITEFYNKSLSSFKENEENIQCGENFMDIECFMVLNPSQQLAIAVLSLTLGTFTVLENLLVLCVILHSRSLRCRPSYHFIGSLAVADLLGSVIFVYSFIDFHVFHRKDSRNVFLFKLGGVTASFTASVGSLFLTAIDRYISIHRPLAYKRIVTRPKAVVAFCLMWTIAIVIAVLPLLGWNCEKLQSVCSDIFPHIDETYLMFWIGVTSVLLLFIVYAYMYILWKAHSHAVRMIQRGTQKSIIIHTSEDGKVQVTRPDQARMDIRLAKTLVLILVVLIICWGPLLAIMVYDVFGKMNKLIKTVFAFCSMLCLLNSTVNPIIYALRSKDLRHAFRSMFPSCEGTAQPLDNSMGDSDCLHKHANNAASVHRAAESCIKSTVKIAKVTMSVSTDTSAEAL

Chain of Cannabinoid receptor 2 (P34972 whole entry): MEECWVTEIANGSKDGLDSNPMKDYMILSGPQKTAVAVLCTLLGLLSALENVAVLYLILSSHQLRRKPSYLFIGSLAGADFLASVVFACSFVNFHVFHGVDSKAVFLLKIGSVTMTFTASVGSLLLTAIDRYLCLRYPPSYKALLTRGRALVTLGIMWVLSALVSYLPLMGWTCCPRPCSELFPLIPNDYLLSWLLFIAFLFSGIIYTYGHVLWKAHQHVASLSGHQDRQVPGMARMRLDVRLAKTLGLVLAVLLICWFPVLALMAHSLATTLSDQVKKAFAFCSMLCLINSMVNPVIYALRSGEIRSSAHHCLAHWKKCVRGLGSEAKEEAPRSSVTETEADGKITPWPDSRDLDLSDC

Regarding `CC(C)(c1ccccc1)c1cc(O)c(-c2cc(Cl)cc(Cl)c2)c(O)c1`, the Ratio Ki in experiment [1] was 87.5. Moreover, the Ki in experiment [2] worked out at 1.07 nM; in experiment [3], 93.7 nM.
As for `O=C(c1ccccc1)c1cc(O)c(-c2cc(Cl)cc(Cl)c2)c(O)c1`, in experiment [1], the Ratio Ki came out at 9.2.
With `COc1cc(C(O)c2ccccc2)cc(OC)c1-c1cc(Cl)cc(Cl)c1` (centres undefined), in experiment [1], the Ratio Ki came out at 602. In experiment [3], the inhibitory constant (Ki) is greater than 1000 nM.
As to `CC1=CC[C@@H]2[C@@H](C1)c1c(O)cc(C(C)(C)c3ccccc3)cc1OC2(C)C`, the Ratio Ki in experiment [1] was determined as 13.5.
With `COc1cc(C(=O)c2ccccc2)cc(O)c1-c1cc(Cl)cc(Cl)c1`, the Ratio Ki in experiment [1] was found to be 210. The same compound came in with a Ki in experiment [3] greater than 1000 nM.
